Results taken from ChEMBL document CHEMBL1142649, “Asymmetric synthesis of novel tetrahydroquinoline derivatives with a sugar building block and their bioactivities” (Bioorg Med Chem Lett, 2005).
Converted amounts (≈) assume the structure as drawn.

Assays:
[1] = Inhibitory concentration against human esophagus cancer cell line at 72 hours; type: functional, cell-based; conditions: cancer cell lines
HeLa = experiment: Inhibitory concentration against human cervical carcinoma cell line at 48 hours; type: functional, cell-based

SMILES | IC50 [1] | IC50 (HeLa)
COc1ccc(N[C@]23c4cc(OC)ccc4NC4(COC5[C@H](O)CO[C@@H]54)C2OC2C3OC[C@H]2O)cc1 (some centres not stated) | > 1000 µg/mL | 648 µg/mL (≈ 1300 µM)
O[C@@H]1COC2C1OCC21Nc2ccccc2[C@]2(Nc3ccccc3)C3OC[C@@H](O)C3OC12 (some centres not stated) | > 1000 µg/mL | > 1000 µg/mL
Cc1cccc(NC23c4ccc(C)cc4NC4(COC5C4OC[C@H]5O)C2O[C@H]2C3OC[C@H]2O)c1 (some centres not stated) | 95 µg/mL (≈ 204 µM) | 276 µg/mL (≈ 592 µM)
Oc1ccc(NC23c4cc(O)ccc4NC4(COC5C4OC[C@H]5O)C2OC2C3OC[C@H]2O)cc1 (some centres not stated) | 78 µg/mL (≈ 166 µM) | > 1000 µg/mL
Cc1ccc(N[C@]23c4cc(C)ccc4NC4(COC5C4OC[C@H]5O)C2OC2C3OC[C@H]2O)cc1 (some centres not stated) | 240 µg/mL (≈ 514 µM) | > 1000 µg/mL
CC(=O)O[C@@H]1COC2C1OCC21Nc2ccc(C)cc2[C@]2(Nc3ccc(C)cc3)C3OC[C@@H](OC(C)=O)C3OC12 (some centres not stated) | 135 µg/mL (≈ 245 µM) | 150 µg/mL (≈ 272 µM)
